Measurements as given in patent publication US8574604B2, “Methods and compositions for the delivery of biologically active agents” (Interface Biologics, Inc., priority 2005, dated 2013).

Test: UV/Vis measurement of Methyl Violet complexation by CyD-OF
Assay type: physicochemical
Conditions: Methyl Violet 0.01 mg/mL in DMSO; decrease in absorbance indicates complexation
Method: CyD-OF (3a) ([…]) was dissolved in DMSO (75 μL). A solution of Methyl Violet (MV, 2.8 mg) in DMSO (28 mL) was prepared at 0.1 mg/mL. One mL of Methyl Violet solution was further diluted with DMSO (10 mL) to form a 0.01 mg/mL solution. The CyD-OF solution (75 μL) was added dropwise to a solution of MV (500 μL) in a 4 mL glass vial over the course of ten minutes. This solution was sealed and left in the dark for 12 hours. A UV/Vis measurement of the Methyl Violet solution at 0.01 mg/mL was taken (A (591 nm)=0.96) as control. The UV/Vis spectrum of the CyD-OF was measured at A (591 nm)=0.63, indicating the intensity of the guest molecules evidently to change upon the addition of molecular receptors. Upon complexation the absorbance decreased, confirming the formation of a complex. A control solution was also prepared.

Methyl Violet
UV/Vis absorbance A (591 nm): 0.96
